Results taken from PubChem BioAssay (NCI).
Values joined by “and” are separate entries in the source; they are usually repeats but may differ in a detail not shown here. Identical values can stand only once.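 All cell lines were grown in 96-well plates and treated with compound for 48 hours. Abbreviation: GI50, concentration required for 50% inhibition of growth. TGI: concentration producing complete growth inhibition.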

Legend:
Assay in all cases: growth of human tumour cells (NCI), 48 h
TK-10 renal = system: TK-10 renal
UACC-62 melanoma = system: UACC-62 melanoma
HOP-62 NSCLC = system: HOP-62 NSCLC
HOP-92 NSCLC = system: HOP-92 NSCLC
OVCAR-4 ovarian = system: OVCAR-4 ovarian
ACHN renal = system: ACHN renal
SW-620 colon = system: SW-620 colon
SR leukemia = system: SR leukemia
CCRF-CEM leukemia = system: CCRF-CEM leukemia
HT29 colon = system: HT29 colon

| SMILES | GI50 (TK-10 renal) | TGI (TK-10 renal) | GI50 (UACC-62 melanoma) | TGI (HOP-62 NSCLC) | GI50 (HOP-92 NSCLC) | TGI (HOP-92 NSCLC) | TGI (OVCAR-4 ovarian) | GI50 (ACHN renal) | TGI (ACHN renal) | GI50 (SW-620 colon) | TGI (SW-620 colon) | GI50 (SR leukemia) | TGI (SR leukemia) | GI50 (CCRF-CEM leukemia) | TGI (CCRF-CEM leukemia) | TGI (HT29 colon) | TGI (UACC-62 melanoma) | GI50 (HOP-62 NSCLC) | GI50 (OVCAR-4 ovarian) | GI50 (HT29 colon) |
| --- | --- | --- | --- | --- | --- | --- | --- | --- | --- | --- | --- | --- | --- | --- | --- | --- | --- | --- | --- | --- |
| COC1/C=C\C=C(/C)C(=O)Nc2cc3nc4ccc(Br)cc4oc-3c(c2=O)CC(C)CC(OC)C(O)C(C)/C=C(\C)C1OC(N)=O (stereo unspecified) | 0.00681 µM | 17.6 µM | 0.00162 µM | 21.2 µM | 0.00757 µM | 4.81 µM | 3.97 µM | 0.00459 µM | 15.6 µM | 0.000996 µM | 2.75 µM | 0.00272 µM | 0.634 µM | 0.00247 µM and 0.0182 µM | 1.9 µM | 7.91 µM | – | – | – | – |
| O=C1C(Cl)=C(Oc2ccc([N+](=O)[O-])cc2)C(=O)c2c(O)ccc(O)c21 | – | > 94 µM | – | > 100 µM | – | 56.6 µM | > 100 µM | – | > 100 µM | – | > 80.9 µM | – | 16.1 µM | – | 12.9 µM | > 83.1 µM | > 100 µM | – | – | – |
| CN(C)CCCN=C(N)N | – | > 100 µM | – | > 100 µM | – | > 100 µM | > 100 µM | – | > 100 µM | – | > 100 µM | – | > 100 µM | – | > 100 µM | > 100 µM | > 100 µM | – | – | – |
| Cc1ccccc1CN1CC2=C(CCN(Cc3ccccc3)C2=O)N2CCN=C12 | – | > 100 µM | – | > 100 µM | – | > 100 µM | > 100 µM | – | > 100 µM | – | > 100 µM | – | > 100 µM | 0.7 µM | > 100 µM | > 100 µM | > 100 µM | – | – | – |
| OCC(O)C(O)C(O)C1SC(c2ccccc2)=NN1c1ccccc1 (stereo unspecified) | – | > 95.7 µM | – | > 100 µM | – | 63.4 µM | > 100 µM | – | > 83 µM | – | > 100 µM | – | > 100 µM | – | > 100 µM | > 100 µM | 74.2 µM | – | – | – |
| O=C(NC1CC1)c1ccc(-c2nc3ccc4[nH]ncc4c3c3c2CCCC3)cc1 | 0.991 µM | 25.6 µM | 2.19 µM | 24.8 µM | 1.45 µM | 25.2 µM | > 50 µM | 1.03 µM | > 50 µM | 1.41 µM | 10.3 µM | 0.987 µM | 6.02 µM | 2.06 µM | > 50 µM | > 50 µM | 9.77 µM | 1.25 µM | 4.62 µM | 2.05 µM |
| COc1ccc(C2=NN(C(=O)COc3ccc(Cl)cc3)C(O)(c3cc(F)c(Cl)cc3Cl)C2)cc1OC (stereo unspecified) | 2.36 µM | 5.09 µM | 5.6 µM | 30.8 µM | 2.31 µM | 13.2 µM | 6.97 µM | 1.63 µM | 3.28 µM | 0.869 µM | 2.58 µM | 1.97 µM | 6.89 µM | 0.218 µM | 1.8 µM | 3.24 µM | 18.7 µM | 13.9 µM | 2.26 µM | 1.51 µM |
| c1cc2c(cc1C(N1CCNCC1)N1CCNCC1)OCO2 | – | > 100 µM | – | > 100 µM | – | > 100 µM | > 100 µM | – | > 100 µM | – | > 100 µM | – | > 100 µM | – | – | > 100 µM | > 100 µM | – | – | – |
| O=C(CNC(=O)OCc1ccccc1)Oc1ccccc1 | – | > 100 µM | – | > 100 µM | – | > 100 µM | > 100 µM | – | > 100 µM | – | > 100 µM | – | > 100 µM | – | > 100 µM | > 100 µM | > 100 µM | – | – | – |
